SMILES strings stand for the structures. Where two headings read alike, the source gives them in different places.

Consider five compounds from PMC8561388 (mBio, 2021).

Series [1] relates to wild-type A75/17-CDV strain (A75^neon). In kind it is cell-based, canine distemper virus.
Series [2] has as its system attenuated OP-CDV strain (OP^neon/nLucP). The series can be described thus: microbe, parasite or virus in culture. Format: cell-based, canine distemper virus.
Series [3] deals with wild-type A75/17-CDV (A75^neon/nLucP). The series can be described thus: microbe, parasite or virus in culture. The conditions noted are these: canine distemper virus, Vero-cSLAM cells. Format: cell-based.
For series [4], the system named is MeV (Edm). The experiment in a line: microbe, parasite or virus in culture. The conditions noted are these: Measles morbillivirus. Format: cell-based.
For series [5], the system named is MeV (ICB). The series can be described thus: microbe, parasite or virus in culture. The conditions noted are these: Measles morbillivirus, NCI-H358 cells. In kind it is cell-based.
Series [6] concerns PIV-5^neon/nLucP. The experiment in a line: microbe, parasite or virus in culture. In kind it is cell-based, parainfluenza virus type 5. The conditions noted are these: PIV-5, Vero cells.
Series [7] relates to RSV-GFP. The series can be described thus: microbe, parasite or virus in culture. Format: cell-based, respiratory syncytial virus. The conditions noted are these: HEp-2 cells, plaque reduction.
Series [8] has as its system VSV. In kind it is cell-based, vesicular stomatitis virus. The conditions noted are these: Vero cells.
The nature of series [9]: Cell viability (cytotoxicity), Vero-cNectin-4. In kind it is cell-based. The conditions noted are these: monkey, Vero-cNectin-4 cells.
The nature of series [10]: Cell viability (cytotoxicity), Vero. Format: cell-based. The conditions noted are these: monkey, Vero cells.
A short description of series [11]: Cell viability (cytotoxicity), MDCK. Format: cell-based, Canine. The conditions noted are these: dog, MDCK cells.
Series [12] is described as follows: Cell viability (cytotoxicity), P114. In kind it is cell-based, Canine. The conditions noted are these: dog, P114 cells.
A short description of series [13]: Cell viability (cytotoxicity), Bsr-T7. The conditions noted are these: hamster, Bsr-T7 cells. In kind it is cell-based.
A short description of series [14]: Cell viability (cytotoxicity), NCI-H358. In kind it is cell-based. The conditions noted are these: human, NCI-H358 cells.
Series [15] in a line: Cell viability (cytotoxicity), HEp-2. Format: cell-based. The conditions noted are these: human, HEp-2 cells.
Series [16] has as its target CDV polymerase complex (Canine distemper virus, UniProt P06940+P24658). The experiment in a line: cell-based. In kind it is cell-based. The conditions noted are these: for effect on minigenome luciferase activity (RdRp complex activity): compound 1 10 μM, compound 3 50 μM, Bsr-T7 cells, 48 h.
Series [17] concerns MeV polymerase complex. In kind it is cell-based, measles virus.
In series [18] the test system is virions (OP^neon/nLucP). The experiment in a line: Virucidal effect. In kind it is cell-based, canine distemper virus. The conditions noted are these: 1 h at 4°C, then dilution to noninhibitory concentration, Vero-cSLAM. The method, then: The virus-compound mixtures were then diluted 10-fold, thereby reaching noninhibitory concentrations. […] Upon inoculation of the diluted mixtures in Vero-cSLAM cells, the viral infectivity was assessed.
OP^neon/nLucP (MOI of 4) was added in a plate containing or not each compound and incubated for 60 min at 4°C. Afterward, the virus and compound mixture was diluted to a noninhibitory drug concentration and added to a monolayer of Vero-cSLAM cells. After 24 h, luminescence was measured using the Nano-Glo live cell assay system (Promega).

Series [19] relates to OP^neon/nLucP. The series can be described thus: Time-of-addition assay. The conditions noted are these: 10 μM, compounds added after 20 h of infection, readout 48 h. In kind it is cell-based, canine distemper virus. The method, then: To this end, Vero-cSLAM cells were treated with compound 1 at the time of infection or at distinct time points postinfection. In this set of experiments, two previously characterized compounds (compound 3 and ERDRP-0519 [Fig. 1A]) targeting two distinct stages of the viral life cycle (entry and replication, respectively) were added as controls.
Vero-cSLAM cells (96-well plate format) were infected with OP^neon/nLucP at an MOI of 0.04, in the presence of compound 3G (final concentration, 30 μM), ERDRP-0519 (final concentration, 10 μM), or ZHAWO9045 (final concentration 10 μM) added at the indicated time points. Control cells were infected in the presence of equal amounts of DMSO. At 48 h postinfection, luminescence was measured using the Nano-Glo live cell assay system (Promega).

For series [20], the system named is CDV-induced membrane fusion between effector and target cells. The experiment in a line: Quantitative cell-to-cell fusion assay. Format: cell-based. The conditions noted are these: exclusively at high concentrations. An excerpt:
It is assumed that small molecules at high concentrations may lead to aggregation effects or nonspecific binding.
Measurement of membrane fusion between effector and target cells in presence of increasing concentration of either compound 3 or 1. […] Download FIG S4, TIF file, 3.0 MB.

The test system of series [21] is Vero-cSLAM cells. The conditions noted are these: 42 h incubation, flow cytometry.
A short description of series [22]: in vitro. The conditions noted are these: monkey, Vero-cSLAM cells.
Series [23] has as its system Vero-cSLAM cells. The series can be described thus: Cell viability (cytotoxicity), Vero-cSLAM.
For series [24], the target named is membrane-anchored OP-CDV F-protein (Canine distemper virus, UniProt P12569). The series can be described thus: Heat shock resistance of prefusion F conformation (flow cytometry). The conditions noted are these: heat shock 65°C; compound 3 75 μM, compound 1 10 μM. For orientation: In flow cytometry, cells or beads pass a laser one at a time.
The subject of series [25] is rNiV-EGFP. The series can be described thus: microbe, parasite or virus in culture. In kind it is cell-based, Nipah virus. The conditions noted are these: Henipavirus nipahense.
A short description of series [26]: Cell viability (cytotoxicity), PGSA745-EFNB2. The conditions noted are these: hamster, PGSA745-EFNB2 cells. In kind it is cell-based.
[27] abbreviates: canine distemper virus, 24 h, read-out: IC50 (CDV), Table S5, full list, Vero-cSLAM, CDV OP^neon/nLuc, 24 h postinfection, interval in brackets.
Setting [28] is: canine distemper virus, BSR-T7, in Mesocricetus auratus, CDV (OP), Bsr-T7 cells (hamster).
[29] abbreviates: canine distemper virus, CDV (OP), Vero-cSLAM cells.
Setting [30] is: canine distemper virus, MDCK, in Canis lupus familiaris, CDV (OP), MDCK cells (canine).
Setting [31] is: canine distemper virus, Vero, CDV (OP), Vero cells.
[32] abbreviates: canine distemper virus, in Canis lupus familiaris, CDV (OP), P114 cells (canine).
[33] abbreviates: human respiratory syncytial virus, HEp-2, RSV.
Where [34] appears, read: canine distemper virus, 24 h, Table S3, aromatic heterocycles and N-alkylated aminothiazoles, Vero-cSLAM, CDV OP^neon/nLuc, 24 h postinfection, interval in brackets.

Chain of CDV polymerase complex (P24658 whole entry): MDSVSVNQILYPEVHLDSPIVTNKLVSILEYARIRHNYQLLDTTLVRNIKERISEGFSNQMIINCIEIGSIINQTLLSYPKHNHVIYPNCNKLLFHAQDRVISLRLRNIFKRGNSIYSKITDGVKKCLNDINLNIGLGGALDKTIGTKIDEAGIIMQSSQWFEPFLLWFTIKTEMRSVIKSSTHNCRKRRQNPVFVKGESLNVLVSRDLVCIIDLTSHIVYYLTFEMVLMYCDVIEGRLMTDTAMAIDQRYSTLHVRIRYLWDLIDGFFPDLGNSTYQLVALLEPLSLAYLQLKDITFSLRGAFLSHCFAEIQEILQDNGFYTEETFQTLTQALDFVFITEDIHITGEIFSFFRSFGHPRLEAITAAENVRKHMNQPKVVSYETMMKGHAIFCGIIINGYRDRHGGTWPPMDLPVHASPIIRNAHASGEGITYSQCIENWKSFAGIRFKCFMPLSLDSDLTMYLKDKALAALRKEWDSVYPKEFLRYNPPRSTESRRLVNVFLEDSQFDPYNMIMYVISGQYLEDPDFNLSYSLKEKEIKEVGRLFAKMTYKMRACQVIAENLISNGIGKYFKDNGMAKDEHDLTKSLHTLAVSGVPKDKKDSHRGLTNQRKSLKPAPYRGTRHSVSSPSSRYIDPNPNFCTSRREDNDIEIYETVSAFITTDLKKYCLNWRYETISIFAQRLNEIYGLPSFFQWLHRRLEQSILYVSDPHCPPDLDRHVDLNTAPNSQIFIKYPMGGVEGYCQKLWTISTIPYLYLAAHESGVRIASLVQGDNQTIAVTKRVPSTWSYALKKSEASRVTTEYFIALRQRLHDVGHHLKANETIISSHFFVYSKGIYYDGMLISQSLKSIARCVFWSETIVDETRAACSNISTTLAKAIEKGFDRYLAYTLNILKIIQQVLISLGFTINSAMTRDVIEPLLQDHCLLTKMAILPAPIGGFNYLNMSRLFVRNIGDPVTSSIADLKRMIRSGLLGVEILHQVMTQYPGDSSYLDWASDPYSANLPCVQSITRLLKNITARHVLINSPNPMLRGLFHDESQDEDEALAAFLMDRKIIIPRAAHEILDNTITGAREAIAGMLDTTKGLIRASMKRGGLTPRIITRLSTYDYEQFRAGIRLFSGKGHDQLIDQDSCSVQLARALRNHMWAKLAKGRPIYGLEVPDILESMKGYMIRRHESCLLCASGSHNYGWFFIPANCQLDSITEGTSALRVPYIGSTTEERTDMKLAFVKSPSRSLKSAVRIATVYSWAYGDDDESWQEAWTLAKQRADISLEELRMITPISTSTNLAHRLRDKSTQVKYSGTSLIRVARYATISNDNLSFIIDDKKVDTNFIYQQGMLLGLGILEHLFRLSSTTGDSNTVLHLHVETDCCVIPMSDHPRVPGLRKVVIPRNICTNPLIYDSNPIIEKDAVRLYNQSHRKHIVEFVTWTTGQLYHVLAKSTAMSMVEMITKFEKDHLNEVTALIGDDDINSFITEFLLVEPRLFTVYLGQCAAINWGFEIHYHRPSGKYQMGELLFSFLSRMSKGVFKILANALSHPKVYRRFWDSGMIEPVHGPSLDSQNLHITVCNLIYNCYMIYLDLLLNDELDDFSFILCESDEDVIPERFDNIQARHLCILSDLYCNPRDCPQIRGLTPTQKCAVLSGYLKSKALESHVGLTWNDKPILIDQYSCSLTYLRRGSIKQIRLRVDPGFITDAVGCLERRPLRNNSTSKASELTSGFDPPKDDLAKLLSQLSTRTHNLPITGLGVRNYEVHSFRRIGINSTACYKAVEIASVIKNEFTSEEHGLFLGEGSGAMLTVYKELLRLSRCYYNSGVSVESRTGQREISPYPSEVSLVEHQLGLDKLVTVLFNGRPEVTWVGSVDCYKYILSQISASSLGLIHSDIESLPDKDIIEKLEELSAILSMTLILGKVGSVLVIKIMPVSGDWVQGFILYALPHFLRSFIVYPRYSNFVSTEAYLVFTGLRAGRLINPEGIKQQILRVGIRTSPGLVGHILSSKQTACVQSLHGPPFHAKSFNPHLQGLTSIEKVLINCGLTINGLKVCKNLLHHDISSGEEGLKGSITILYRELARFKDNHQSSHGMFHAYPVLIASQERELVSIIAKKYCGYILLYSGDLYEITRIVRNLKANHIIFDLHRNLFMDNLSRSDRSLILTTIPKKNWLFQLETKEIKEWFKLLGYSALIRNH
Chain of CDV polymerase complex (P06940 whole entry): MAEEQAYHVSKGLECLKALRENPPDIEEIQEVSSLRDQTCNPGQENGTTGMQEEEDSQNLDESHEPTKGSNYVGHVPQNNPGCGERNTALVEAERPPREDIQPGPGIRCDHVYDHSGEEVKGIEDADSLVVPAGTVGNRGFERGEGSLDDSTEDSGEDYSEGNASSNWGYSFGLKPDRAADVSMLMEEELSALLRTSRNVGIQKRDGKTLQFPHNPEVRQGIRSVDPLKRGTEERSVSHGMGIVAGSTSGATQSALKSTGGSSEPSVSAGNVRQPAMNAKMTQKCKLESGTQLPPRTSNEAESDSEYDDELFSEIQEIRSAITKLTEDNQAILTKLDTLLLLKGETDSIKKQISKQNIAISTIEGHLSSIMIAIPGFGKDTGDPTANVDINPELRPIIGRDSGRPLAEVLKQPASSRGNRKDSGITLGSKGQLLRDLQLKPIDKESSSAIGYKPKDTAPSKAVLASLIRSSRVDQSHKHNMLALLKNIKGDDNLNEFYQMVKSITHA
Chain of membrane-anchored OP-CDV F-protein (P12569 136-224): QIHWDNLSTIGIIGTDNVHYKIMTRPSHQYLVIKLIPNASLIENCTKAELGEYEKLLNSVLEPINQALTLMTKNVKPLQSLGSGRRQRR
Chain of membrane-anchored OP-CDV F-protein (P12569 225-662): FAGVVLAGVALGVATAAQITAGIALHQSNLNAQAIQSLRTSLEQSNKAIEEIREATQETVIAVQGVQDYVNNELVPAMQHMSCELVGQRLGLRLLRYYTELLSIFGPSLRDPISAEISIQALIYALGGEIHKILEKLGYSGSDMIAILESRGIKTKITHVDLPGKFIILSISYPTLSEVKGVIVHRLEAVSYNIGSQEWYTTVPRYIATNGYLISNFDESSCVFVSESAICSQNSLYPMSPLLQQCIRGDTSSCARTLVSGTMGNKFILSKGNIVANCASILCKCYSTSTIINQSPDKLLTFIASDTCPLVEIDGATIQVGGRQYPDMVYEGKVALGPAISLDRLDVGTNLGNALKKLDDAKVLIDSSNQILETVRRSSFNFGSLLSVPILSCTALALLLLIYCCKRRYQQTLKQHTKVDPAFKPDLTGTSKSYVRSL

Turning to `Cn1nc(C(F)(F)F)cc1C(=O)Nc1ccc(S(=O)(=O)N2CCCC[C@H]2CCN2CCOCC2)cc1` [ERDRP-0519, reference compound], in series [1] (stepwise adaptation of A75/17-CDV), the “tolerated dose at the end of adaptation” value was ≥ 30 µM.
What is called IC50 is the concentration needed to halve the response being measured. The CC50 is the concentration at which the toxic effect on the cells reaches its halfway point. A higher CC50 goes with better tolerance by the cells. A word on the inhibition: it is the relative decrease from the control value, in per cent. For the compound `CC1(C)Cc2cccc(OCC(=O)Nc3nc4ccccc4s3)c2O1` [compound 1], the IC50 in series [2] (CDV (OP), Bsr-T7 cells (hamster)) is 7.3 µM; in series [2] (setting [27]) it was 0.53 µM; in series [2] (canine distemper virus, 24 h, Vero-cSLAM, CDV OP^neon/nLuc, luciferase 24 h postinfection) it was 0.52 µM; in [2] (setting [28]), ~7 µM; in [2] (canine distemper virus, CDV (OP), Vero-cNectin-4 cells) it was 0.43 µM; in series [2] (setting [29]) it was ~0.45 µM. Also, the IC50 in series [2] (setting [30]) is 30 µM; in series [2] (setting [31]) it was 0.4 µM; in series [2] (setting [32]), 2.6 µM; in series [2] (canine distemper virus, read-out: IC50 values, summary for MeV and CDV) it was 0.2 to 0.7 µM; in [3], ~0.7 µM; in series [4] (NCI-H358), 0.52 µM. The IC50 in [4] (Vero) was 0.25 µM; in series [5] it was 0.37 µM; in series [6], 7.2 µM; in [6] (parainfluenza virus 5, Vero), ~7 µM; in series [7] (RSV) it was 5.9 µM; in [7] (setting [33]), ~6 µM. Moreover, the “antiviral activity against VSV” value in series [8] is “did not display any activity”. The CC50 in series [9] is 43 µM; in series [10], 46 µM; in [11], 99 µM; in series [12], 57 µM; in [13], 50 µM; in [14], 50 µM. The CC50 in series [15] is 110 µM; in series [22], 52 µM; in series [23], ~50 µM. Also, the inhibition at 10 µM in series [16] (BSR-T7, read-out: inhibition of polymerase activity in the minigenome assay) is ~50%. In addition, the “effect on minigenome luciferase activity (RdRp complex activity)” value in series [16] was “sufficient to significantly inhibit the luciferase activity”. Further, in series [17], the “effect on MeV polymerase activity (minigenome)” value was “inhibition of MeV polymerase activity was recorded”. Further, the “emergence of viral resistance” value in series [1] (83-day study, four separate replicates) was “did not induce any detectable viral resistance”. The “inhibitory activity after 10-fold dilution of virus-compound mixture (virucidal activity)” value in [18] is “entirely lost its inhibitory activity”. Also, the time-of-addition inhibition profile entry in series [19] was “acted like ERDRP-0519”. In series [20], the “effect on membrane fusion activity” value is reported as “enhance fusion activity”. Further, the “concentration at which impact on cell cycle progression (G1 arrest) is statistically significant” value in series [21] was 30 µM. Also, the “stabilizing effect on prefusion F-trimers” value in series [24] is on record as “did not”.
In the case of `CN(C(=O)COc1cccc2c1OC(C)(C)C2)c1nc2c(s1)CCCC2` [compound 2], the IC50 result in [2] (Vero-cSLAM, CDV OP^neon/nLuc, luciferase 24 h postinfection) is “single-digit nanomolar”; in series [2] (setting [34]), 0.0084 µM; in series [2] (setting [28]), 0.012 µM; in [2] (setting [29]), 0.0026 µM; in [2] (setting [30]), 0.065 µM; in series [2] (setting [31]) it was 0.003 µM. The IC50 in [2] (setting [32]) came out at 0.019 µM; in series [3] it was 0.0032 µM; in series [25] it was 0.08 µM; in [6] (parainfluenza virus 5, Vero), 0.015 µM; in series [7] (setting [33]), 0.031 µM. The CC50 in [10] stood at 52 µM; in series [11], 87 µM; in [12] it was 65 µM; in [26] it was 80 µM; in series [15], 51 µM; in series [22], 54 µM. For the same compound, in [21], the “concentration at which impact on cell cycle progression (G1 arrest) is statistically significant” value amounted to 1 µM.
As for `N#Cc1cccc(NC(=O)Cc2ccccc2)c1` [compound 3, reference compound], the IC50 was 26 µM in [2] (setting [27]), 8 µM in [2] (setting [29]) and 6 µM in [3]. For the same compound, the “effect on minigenome luciferase activity (RdRp complex activity)” value in [16] was “luciferase activity remained similar to that for vehicle”. Also, the “inhibitory activity after 10-fold dilution of virus-compound mixture (virucidal activity)” value in series [18] is “still efficiently prevented viral infectivity even after the dilution step”. In addition, the midpoint of cytotoxicity in [22], the CC50, lay at 130 µM. Besides, in [24], the “stabilizing effect on prefusion F-trimers” value is listed as “strong stabilizing effect”.
On to `C#CCCCN(C(=O)COc1cccc2c1OC(C)(C)C2)c1nc2ccccc2s1` [compound 23], for which 0.27 µM corresponded to half-maximal inhibition in [2] (setting [34]) (IC50).
